In brackets after ≈: the same amount, converted by molar mass. Like-named read-outs stand apart in the source and are kept apart here.
Legend:
[1] = test system: S. aureus ATCC 43300 (MRSA); assay: MIC against S. aureus ATCC 43300 (MRSA), CO-ADD; type: cell-based, Staphylococcus aureus; conditions: for MIC: Staphylococcus aureus, read-out: MIC S. a
Excerpt: (§1) Antimicrobial evaluation of the pure compounds against A. baumannii ATCC 19606, Candida albicans ATCC 90028, Cryptococcus neoformans ATCC 208821, E. coli ATCC 25922, K. pneumoniae ATCC 700603, P. aeruginosa ATCC 27853, and S. aureus ATCC 43300 (MRSA) was undertaken at the Community for Open Antimicrobial Drug Discovery at The University of Queensland (St. Lucia, Queensland, Australia) according to standard protocols as previously described.

[2] = test system: P. aeruginosa ATCC 27853; assay: MIC against P. aeruginosa ATCC 27853, CO-ADD; type: cell-based; conditions: Pseudomonas aeruginosa
Excerpt: as §1

[3] = test system: C. neoformans ATCC 208821; assay: MIC against C. neoformans ATCC 208821, CO-ADD; type: cell-based; conditions: Cryptococcus neoformans
Excerpt: as §1

[4] = test system: C. albicans ATCC 90028; assay: MIC against C. albicans ATCC 90028, CO-ADD; type: cell-based, Candida albicans; conditions: for MIC: Candida albicans
Excerpt: as §1

[5] = test system: E. coli ATCC 25922; assay: MIC against E. coli ATCC 25922, CO-ADD; type: cell-based; conditions: Escherichia coli
Excerpt: as §1

[6] = test system: HEK293 human embryonic kidney cells
Method: (§2) All compounds were also evaluated for their cytotoxicity against human embryonic kidney cells (HEK-293) and any haemolytic activity against human red blood cells.

[7] = test system: K. pneumoniae ATCC 700603; assay: MIC against K. pneumoniae ATCC 700603, CO-ADD; type: cell-based; conditions: Klebsiella pneumoniae
Excerpt: as §1

[8] = test system: A. baumannii ATCC 19606; assay: MIC against A. baumannii ATCC 19606, CO-ADD; type: cell-based; conditions: Acinetobacter baumannii
Excerpt: as §1

[9] = test system: Mycotypha microspora; parameters: method as in PMID 25312126; conditions: cited from earlier work
[10] = test system: Elymus repens; parameters: method as in PMID 25312126; conditions: cited from earlier work
[11] = test system: Microbotryum violaceum; parameters: method as in doi:10.1002/ejoc.200800404; conditions: agar diffusion assay; cited from earlier work
[12] = test system: E. coli; parameters: method as in doi:10.1002/ejoc.200800404; conditions: agar diffusion assay; cited from earlier work
[13] = test system: Bacillus megaterium; parameters: method as in doi:10.1002/ejoc.200800404; conditions: agar diffusion assay; cited from earlier work
[14] = test system: E. coli; parameters: method as in PMID 4629229; conditions: disk diffusion assays; cited from earlier work
[15] = test system: S. cerevisiae; parameters: method as in PMID 19333565, doi:10.1590/S0100-40422007000700012; conditions: cited from earlier work
[16] = test system: B. subtilis; parameters: method as in PMID 19333565, doi:10.1590/S0100-40422007000700012; conditions: cited from earlier work
[17] = test system: Mycobacteria tuberculosis; parameters: method as in PMID 19333565, doi:10.1590/S0100-40422007000700012; conditions: cited from earlier work
[18] = test system: S. aureus; parameters: method as in PMID 19333565, doi:10.1590/S0100-40422007000700012; conditions: cited from earlier work
[19] = test system: Sclerotinia sclerotiorum; parameters: method as in PMID 19333565, doi:10.1590/S0100-40422007000700012; conditions: cited from earlier work
[20] = test system: M. marinum BSG101; assay: Antimycobacterial bioluminescence assay of pure compounds, M. marinum; conditions: Mycobacterium marinum, BSG101, 72 h
Method: Antimicrobial evaluation against M. abscessus and M. marinum was undertaken using in-house assays with the bioluminescent derivatives M. abscessus BSG301 [63] and M. marinum BSG101 [64]. […] Specifically, mycobacterial cultures were grown with shaking at 200 rpm in Middlebrook 7H9 broth (Fort Richard, Auckland, New Zealand) supplemented with 10% Middlebrook ADC enrichment media (Fort Richard, Auckland, New Zealand), 0.4% glycerol (Sigma-Aldrich, St. Louis, MO, USA), and 0.05% tyloxapol (Sigma-Aldrich, St. Louis, MO, USA). M. abscessus was grown at 37 °C and M. marinum at 28 °C. Cultures were grown until they reached the stationary phase (approximately 3–5 days for M. abscessus BSG301 and 7–10 days for M. marinum BSG101) and then diluted in MHB supplemented with 10% Middlebrook ADC enrichment media and 0.05% tyloxapol to give an optical density at 600 nm (OD600) of 0.001, which is the equivalent of ~10^6 bacteria per mL. Pure compounds were dissolved in DMSO and added to the wells of a black 96-well plate (Nunc, Thermo Scientific, Waltham, MA, USA) at doubling dilutions with a maximum concentration of 128 mg/mL. […] Bacterial luminescence was measured at regular intervals over 72 h using a Victor X-3 luminescence plate reader with an integration time of 1 s. […]

[21] = test system: human red blood cells; assay: Haemolytic activity on human red blood cells; conditions: concentration of compound at 10% haemolytic activity on human red blood cells; mean of two experiments
[22] = Cytotoxicity on HEK293 human embryonic kidney cells
Method: as §2

[23] = test system: human red blood cells
[24] = test system: Microsporum gypseum; parameters: method as in PMID 4629229, PMID 9797310, PMID 19801865; conditions: cited from earlier work
[25] = test system: Aspergillus fumigatus; parameters: method as in PMID 4629229, PMID 9797310, PMID 19801865; conditions: cited from earlier work
[26] = in vitro; conditions: human
Method: as §2

[27] = test system: Bacillus subtilis; parameters: method as in PMID 4629229; conditions: disk diffusion assays; cited from earlier work
[28] = test system: Aspergillus flavus; parameters: method as in PMID 4629229, PMID 9797310, PMID 19801865; conditions: cited from earlier work
[29] = S. aureus ATCC 43300 (MRSA), mean of two experiments
[30] = ATCC27853, P. aeruginosa ATCC 27853, mean of two experiments, read-out: MIC P. a
[31] = ATCC208821, C. neoformans ATCC 208821, mean of two experiments, read-out: MIC C. n
[32] = ATCC90028, C. albicans ATCC 90028, mean of two experiments, read-out: MIC C. a
[33] = ATCC25922, E. coli ATCC 25922, mean of two experiments, read-out: MIC E. c
[34] = ATCC700603, K. pneumoniae ATCC 700603, mean of two experiments, read-out: MIC K. p
[35] = ATCC19606, A. baumanii ATCC 19606, mean of two experiments, read-out: MIC A. b

CC(O)CCC(O)/C=C/C(=O)O (stereo not drawn) [compound 1, (E)-4,7-dihydroxyoct-2-enoic acid]
MIC [1, 29]: > 184 µM | MIC [2, 30]: > 184 µM | MIC [3, 31]: > 184 µM | MIC [4, 32]: > 184 µM | MIC [5, 33]: > 184 µM | cytotoxicity [6]: no cytotoxic or haemolytic activity | MIC [7, 34]: > 184 µM | MIC [8, 35]: > 184 µM

C/C=C/c1cc2c(c(=O)o1)C(=O)[C@@H](O)[C@H](C)O2 [compound 2, radicinin]
MIC [1]: > 135 µM | MIC ([2]; ATCC27853, read-out: MIC P. a): > 135 µM | MIC ([3]; ATCC208821, read-out: MIC C. n): > 135 µM | MIC ([4]; ATCC90028, read-out: MIC C. a): > 135 µM | MIC ([5]; ATCC25922, read-out: MIC E. c): > 135 µM | antifungal activity against Mycotypha microspora [9]: moderate antifungal activity | MIC ([7]; ATCC700603, read-out: MIC K. p): > 135 µM | antifungal activity against Elymus repens [10]: moderate antifungal activity | MIC ([8]; ATCC19606, read-out: MIC A. b): > 135 µM

C/C1=C\C[C@]2(C)C(=O)C(O)=C([C@H](C)CO)[C@H]2C/C=C(\C)[C@@H](O)CC/C(C)=C/CC1 [compound 3, terpestacin]
MIC [1, 29]: > 79 µM | MIC [2, 30]: > 79 µM | MIC [3, 31]: > 79 µM | MIC [4, 32]: > 79 µM | MIC [5, 33]: > 79 µM | MIC [7, 34]: > 79 µM | MIC [8, 35]: > 79 µM

C[C@@H]1CCC(=O)CCC(=O)O[C@H](C)CC[C@H](O)/C=C/C(=O)O1 [compound 4, tetrahydropyrenophorin]
MIC [1, 29]: > 102 µM | MIC [2, 30]: > 102 µM | MIC [3, 31]: > 102 µM | antifungal activity against Microbotryum violaceum [11]: antifungal activity | MIC [4, 32]: > 102 µM | MIC [5, 33]: > 102 µM | antibacterial activity against E. coli [12]: moderate antibacterial activity | MIC [7, 34]: > 102 µM | antibacterial activity against Bacillus megaterium [13]: moderate antibacterial activity | MIC [8, 35]: > 102 µM

CC1CCCCCC(=O)c2c(O)cc(O)cc2CC(=O)O1 (stereo not drawn) [compound 5, curvularin]
MIC [1, 29]: > 109 µM | activity against E. coli [14]: none of the compounds were active | antimicrobial activity against S. cerevisiae [15]: inactive | MIC [2, 30]: > 109 µM | antimicrobial activity against B. subtilis [16]: inactive | MIC [3, 31]: > 109 µM | MIC [4, 32]: > 109 µM | antimicrobial activity against Mycobacteria tuberculosis [17]: inactive | MIC [5, 33]: > 109 µM | antimicrobial activity against S. aureus [18]: inactive | MIC [7, 34]: > 109 µM | antimicrobial activity against Sclerotinia sclerotiorum [19]: inactive | MIC [8, 35]: > 109 µM

C[C@H]1CCC/C=C/C(=O)c2c(O)cc(O)cc2CC(=O)O1 [compound 6, dehydro-curvularin]
MIC [1]: > 110 µM | antimicrobial activity against S. cerevisiae [15]: inactive | MIC ([2]; ATCC27853, read-out: MIC P. a): > 110 µM | antimicrobial activity against B. subtilis [16]: inactive | MIC [20]: 32 µg/mL (≈ 110 µM) | MIC ([3]; ATCC208821, read-out: MIC C. n): > 110 µM | MIC ([4]; ATCC90028, read-out: MIC C. a): > 110 µM | MIC against M. tuberculosis [17]: 40 µM (≈ 11.6 µg/mL) | antimicrobial activity against Mycobacteria tuberculosis [17]: active | MIC ([5]; ATCC25922, read-out: MIC E. c): > 110 µM | antimicrobial activity against S. aureus [18]: inactive | HC10 [21]: >110 µM | MIC ([7]; ATCC700603, read-out: MIC K. p): > 110 µM | CC50 [22]: 1.27 µM | antimicrobial activity against Sclerotinia sclerotiorum [19]: inactive | MIC ([8]; ATCC19606, read-out: MIC A. b): > 110 µM

COc1c(CC(C)O)c2c3c(CC(C)O)c(OC)c(=O)c4c(O)cc5c(c6c(cc(O)c(c1=O)c62)OCO5)c43 (stereo not drawn) [compound 7, cercosporin]
activity against MRSA ([1]; MRSA): potent activity | MIC [1, 29]: ≤ 0.47 µM | MIC [2, 30]: > 60 µM | MIC [3, 31]: > 60 µM | MIC [4, 32]: > 60 µM | MIC [5, 33]: > 60 µM | HC10 [21]: >60 µM | MIC [7, 34]: > 60 µM | haemolytic activity [23]: not haemolytic | CC50 [22]: 25.3 µM | MIC [8, 35]: > 60 µM

C[C@H]1CCC/C=C/[C@@H]2C[C@H](O)C[C@H]2[C@H](O)/C=C/C(=O)O1 [compound 8, brefeldin A]
MIC [1, 29]: > 114 µM | activity against E. coli [14]: none of the compounds were active | MIC [2, 30]: > 114 µM | MIC [3, 31]: > 114 µM | antifungal activity against C. albicans [4]: moderate antifungal activity | MIC [4, 32]: 57 µM (≈ 16 µg/mL) | MIC [5, 33]: > 114 µM | activity against Microsporum gypseum [24]: activity | HC10 [21]: >114 µM | MIC [7, 34]: > 114 µM | activity against Aspergillus fumigatus [25]: activity | CC50 [22]: 0.89 µM | MIC [8, 35]: > 114 µM

C[C@@H]1C[C@H]2O[C@@H]2/C=C\C=C\C(=O)Cc2c(Cl)c(O)cc(O)c2C(=O)O1 [compound 10, radicicol]
MIC [1, 29]: > 88 µM | activity against E. coli [14]: none of the compounds were active | MIC [2, 30]: > 88 µM | MIC [20]: 64 µg/mL (≈ 175 µM) | MIC [3, 31]: > 88 µM | antifungal activity against C. albicans [4]: moderate antifungal activity | MIC [4, 32]: 44 µM (≈ 16.1 µg/mL) | CC50 [26]: > 88 µM | activity against B. subtilis [27]: active | MIC [5, 33]: > 88 µM | activity against Aspergillus flavus [28]: activity | MIC [7, 34]: > 88 µM | HC10 ([23]; human): >88 µM | MIC [8, 35]: > 88 µM

OC(Cn1cncn1)(Cn1cncn1)c1ccc(F)cc1F [fluconazole, reference compound]
MIC [3, 31]: 26 µM (≈ 7.96 µg/mL) | MIC [4, 32]: 0.4 µM (≈ 0.123 µg/mL)

CC/C(=C(\c1ccccc1)c1ccc(OCCN(C)C)cc1)c1ccccc1 [tamoxifen, reference compound]
IC50 ([22]; HEK-293 human embryonic kidney cells): 24 µM

CN[C@H](CC(C)C)C(=O)N[C@H]1C(=O)N[C@@H](CC(N)=O)C(=O)N[C@H]2C(=O)N[C@H]3C(=O)N[C@H](C(=O)N[C@H](C(=O)O)c4cc(O)cc(O)c4-c4cc3ccc4O)[C@H](O)c3ccc(c(Cl)c3)Oc3cc2cc(c3O[C@@H]2O[C@H](CO)[C@@H](O)[C@H](O)[C@H]2O[C@H]2C[C@](C)(N)[C@H](O)[C@H](C)O2)Oc2ccc(cc2Cl)[C@H]1O [vancomycin, reference compound]
MIC [1]: 0.7 µM (≈ 1.01 µg/mL)
